According to patent US20050228031A1, “Tyrosine kinase inhibitors” (priority 2004, published 2005):

SMILES | melting point [°C]
FC(F)(F)c1cc(Nc2ncc(-c3ccccc3)o2)cc(C(F)(F)F)c1 [Compound 5-6, N-[3,5-bis(trifluoromethyl)-phenyl]-5-phenyl-1,3-oxazol-2-amine] | 203
c1ccc(Nc2ncc(-c3ccccc3)o2)cc1 [Compound 5-4, N,5-diphenyl-1,3-oxazol-2-amine] | 169 to 170
c1ccc(-c2cnc(Nc3ccc4c(c3)CCC4)o2)cc1 [Compound 5-5, N-(2,3-dihydro-1H-inden-5-yl)-5-phenyl-1,3-oxazol-2-amine] | 152
Cc1cc(C)cc(Nc2ncc(-c3ccccc3)s2)c1 [Compound 2-3, N-(3,5-dimethylphenyl)-5-phenyl-1,3-thiazol-2-amine] | 144
